Data reported in patent US11261453B2, “Cells expressing apolipoprotein E and uses thereof” (Whitehead Institute for Biomedical Research, priority 2014, dated 2022).

Legend:
[1] = test system: ApoE4-mediated toxicity; settings: known from other experiments; cited from earlier work
[2] = test system: ApoE4-mediated toxicity; assay: Compound test in ApoE4 hitox yeast strain (PDR1 and PDR3 deleted), optical density at A600 after 24 hours; format: cell-based, Saccharomyces cerevisiae; settings: A600, FIG. 10
Method: An ApoE4 hitox strain harboring 3-4 copies of the ApoE4 construct and with the drug-pump transcription factors PDR1 and PDR 3 deleted was used in this experiment. Cells were grown in raffinose; cells were diluted into galactose medium (to initiate expression of the expression construct). Test compounds were added to the cultures at various concentrations ranging from 0.25 μM to 32.0 μM; cells were grown for 24 hours after addition of the compounds, and the optical densities were then read at A600.

[3] = test system: Ste3 endocytosis to the vacuole; assay: Ste3-mKate2 endocytosis assay, fluorescence microscopy; format: cell-based, Saccharomyces cerevisiae; settings: 6-8 hours of induction with galactose, FIG. 13
From the text: The effect of ApoE on endocytosis in yeast was further analyzed using a Ste3-mKate2 assay. Ste3 is a yeast G-protein coupled receptor (GPCR) that natively undergoes endocytosis from the cell surface to the vacuole. When clathrin-mediated endocytosis is disrupted, Ste3 trafficking can be disrupted as well.
The trafficking of Ste3 was observed using fluorescence microscopy by overexpressing a fluorescently-tagged (mKate2) version of Ste3 from a pAG423 galactose-inducible plasmid. The ApoE4 hitox strain described above was transformed with the pAG423-Ste3-mKate2 plasmid. In addition, yeast strains as described in Example 4 harboring expression constructs encoding human neurodegenerative disease-associated proteins alpha-synuclein (α-syn intox) or Aβ (Kar2ss-Aβ strain described in Treusch, S., et al., Science. (2011), 334:1241-5) were also transformed with the pAG423-Ste3-mKate2 plasmid. A strain transformed with a Gal-GFP plasmid served as a negative control. […] (FIG. 13).

Compound: Oc1c(I)cc(Cl)c2cccnc12 [clioquinol]
- toxicity of the compound itself to yeast [1]: becomes toxic to yeast at high concentrations
- ability to reduce ApoE4-mediated toxicity ([2]; 0.25 μM to 32.0 μM): able to reduce ApoE4-mediated toxicity
- concentrations at which ApoE4-mediated toxicity is reduced [2]: below 1.5 μM

Compound: Aβ: human amyloid beta expressed in yeast (Kar2ss-Aβ strain)
- effect on Ste3 endocytosis [3]: disruption of Ste3 endocytosis
